Patent US20130109682A1, “CYCLIC ETHER COMPOUNDS USEFUL AS KINASE INHIBITORS” (NOVARTIS AG, priority 2010, published 2013)

Tests used:
PIM1 = PIM1 (Homo sapiens, UniProt P11309); test: KinaseGlo Pim1 ATP depletion assay; format: biochemical
Outline: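 2.5 nM PIM1 preincubated 15 min with compound and 40 μM BAD peptide in 50 mM HEPES pH 7.5, 5 mM MgCl2, 1 mM DTT, 0.05% BSA, 2.5% DMSO. The reaction was started with 20 μM ATP (final) and run to about 50% ATP depletion. Remaining ATP read by KinaseGlo Plus luminescence to give IC50.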

PIM2 = PIM2 (Homo sapiens, UniProt Q9P1W9); test: KinaseGlo Pim2 ATP depletion assay; format: biochemical
Chain of PIM2 (Q9P1W9 whole entry): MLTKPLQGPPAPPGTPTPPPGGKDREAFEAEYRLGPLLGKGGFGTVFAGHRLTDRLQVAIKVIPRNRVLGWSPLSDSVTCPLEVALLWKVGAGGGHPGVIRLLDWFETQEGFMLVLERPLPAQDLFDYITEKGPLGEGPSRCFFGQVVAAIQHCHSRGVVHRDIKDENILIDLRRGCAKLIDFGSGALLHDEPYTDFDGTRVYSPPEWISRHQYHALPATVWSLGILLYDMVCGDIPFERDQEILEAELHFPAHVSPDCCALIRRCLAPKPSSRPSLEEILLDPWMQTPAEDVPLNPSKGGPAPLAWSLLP
Outline: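 Luminescent ATP-depletion read-out of PIM2 phosphorylating BAD peptide (RSRHSSYPAGT-OH). Final conditions: 5 nM PIM2, 4 μM ATP, 10 μM peptide, 2.5% DMSO in 50 mM HEPES pH 7.5, 5 mM MgCl2, 1 mM DTT, 0.05% BSA. Enzyme–peptide preincubated 15 min with compound; reaction run to ~50% ATP depletion.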

PIM3 = PIM3 (Homo sapiens, UniProt Q86V86); test: KinaseGlo Pim3 ATP depletion assay; format: biochemical
Outline: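 Kinase was preincubated 15 min with BAD peptide in HEPES pH 7.5/MgCl2/DTT/BSA before ATP was added. Final concentrations were 40 μM ATP, 100 μM BAD peptide and 2.5% DMSO, with 5 nM enzyme. The reaction ran to ~50% ATP depletion and remaining ATP was read by KinaseGlo Plus luminescence.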

GSK3β = GSK3β (Homo sapiens, UniProt P49841); test: GSK3β ATP depletion assay; format: biochemical; conditions: read-out: GSK3b IC50
Chain of GSK3β (P49841 whole entry, species assumed): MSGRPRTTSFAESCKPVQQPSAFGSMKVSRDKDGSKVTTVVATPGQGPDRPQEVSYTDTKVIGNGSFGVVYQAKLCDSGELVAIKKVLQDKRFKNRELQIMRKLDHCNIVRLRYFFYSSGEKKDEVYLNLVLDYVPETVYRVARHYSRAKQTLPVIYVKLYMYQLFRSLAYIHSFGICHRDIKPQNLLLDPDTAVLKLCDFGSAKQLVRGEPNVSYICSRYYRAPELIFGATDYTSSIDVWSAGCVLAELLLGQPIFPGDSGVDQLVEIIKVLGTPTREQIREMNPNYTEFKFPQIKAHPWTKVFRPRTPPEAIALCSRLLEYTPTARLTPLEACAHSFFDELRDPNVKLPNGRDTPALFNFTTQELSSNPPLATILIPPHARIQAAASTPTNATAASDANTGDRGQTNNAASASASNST
Outline: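 Human GSK3β (5 nM) preincubated 15 min with 10 μM biotinylated phospho-CREB peptide in pH 7.5 Tris buffer (15 mM MgCl2, 1 mM DTT, 0.1% BSA, 2.5% DMSO). Reaction started with 2 μM ATP and run to about 50% ATP depletion. Remaining ATP measured by KinaseGlo luminescence.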

[1] = tested on: KMS11 (human myeloma cell line); test: Cell proliferation assay (CellTiter-Glo), KMS11; format: cell-based; conditions: Homo sapiens, KMS-11; KMS11-Luc cells
Outline: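 KMS11 cells in IMDM with 10% FBS and sodium pyruvate, seeded at 2000 cells/well on assay day. Compound added at 2× to equal volume of cells, incubated 3 days at 37° C. Viability read by CellTiter-Glo luminescence; EC50 derived.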

Chain of PIM1 (P11309 whole entry): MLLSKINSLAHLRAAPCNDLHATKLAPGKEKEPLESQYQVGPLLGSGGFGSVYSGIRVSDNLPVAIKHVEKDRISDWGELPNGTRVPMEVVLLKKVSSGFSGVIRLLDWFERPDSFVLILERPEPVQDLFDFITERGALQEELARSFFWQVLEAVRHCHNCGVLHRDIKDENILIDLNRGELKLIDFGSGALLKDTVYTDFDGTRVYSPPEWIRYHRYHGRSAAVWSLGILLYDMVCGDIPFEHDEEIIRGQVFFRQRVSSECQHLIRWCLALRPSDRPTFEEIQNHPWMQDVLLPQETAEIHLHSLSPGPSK

SMILES	IC50 (PIM1) [nM]	IC50 (PIM2) [nM]	IC50 (PIM3) [nM]	IC50 (GSK3β) [nM]	EC50 [1] [nM]
Nc1cnc(-c2c(F)cccc2F)nc1C(=O)Nc1cnccc1[C@@H]1C[C@H](O)[C@@H](O)[C@H](C2CC2)O1 [Example 205, 5-amino-N-(4-((2S,4S,5R,6S)-6-cyclopropyl-4,5-dihydroxytetrahydro-2H-pyran-2-yl)pyridin-3-yl)-2-(2,6-difluorophenyl)pyrimidine-4-carboxamide]	37.3	45.4	69.7	1870	> 10000
O=C(Nc1cnccc1[C@@H]1C[C@H](O)[C@@H](O)[C@H](C2CC2)O1)c1cccc(-c2c(F)cccc2F)n1 [Example 206, N-(4-((2S,4S,5R,6S)-6-cyclopropyl-4,5-dihydroxytetrahydro-2H-pyran-2-yl)pyridin-3-yl)-6-(2,6-difluorophenyl)picolinamide]	19.9	33.8	20.2	1920	> 10000
Nc1cnc(-c2c(F)cccc2F)nc1C(=O)Nc1cnccc1[C@H]1C[C@@H](O)[C@H](O)[C@@H](C2CC2)O1 [Example 207, 5-amino-N-(4-((2R,4R,5S,6R)-6-cyclopropyl-4,5-dihydroxytetrahydro-2H-pyran-2-yl)pyridin-3-yl)-2-(2,6-difluorophenyl)pyrimidine-4-carboxamide]	6.3	6	8.5	572	6450
N[C@H]1C[C@@H](c2ccncc2NC(=O)c2ccc(F)c(-c3c(F)cccc3F)n2)O[C@H]2CCC[C@]21O [Example 212, N-(4-((2S,4S,4aR,7aS)-4-amino-4a-hydroxyoctahydrocyclopenta[b]pyran-2-yl)pyridin-3-yl)-6-(2,6-difluorophenyl)-5-fluoropicolinamide]	17.9	508	155	11500	3360
Nc1cnc(-c2c(F)cccc2F)nc1C(=O)Nc1cnccc1[C@@H]1C[C@H](N)[C@]2(O)CCC[C@@H]2O1 [Example 214, 5-amino-N-(4-((2S,4S,4aR,7aS)-4-amino-4a-hydroxyoctahydrocyclopenta[b]pyran-2-yl)pyridin-3-yl)-2-(2,6-difluorophenyl)pyrimidine-4-carboxamide]	258	2250	373	> 25000	> 10000

Molecules with a lower IC50 (PIM1), results first:

IC50 (PIM1) [nM]	IC50 (PIM2) [nM]	IC50 (PIM3) [nM]	IC50 (GSK3β) [nM]	EC50 [1] [nM]	SMILES
4.6	8.8	6.6	796	> 10000	O=C(Nc1cnccc1[C@H]1C[C@@H](O)[C@H](O)[C@@H](C2CC2)O1)c1cccc(-c2c(F)cccc2F)n1 [Example 208, N-(4-((2R,4R,5S,6R)-6-cyclopropyl-4,5-dihydroxytetrahydro-2H-pyran-2-yl)pyridin-3-yl)-6-(2,6-difluorophenyl)picolinamide]
3.2	7.9	4.2	1060	9500	O=C(Nc1cnccc1[C@@H]1C[C@H](O)[C@@H](O)[C@H](C2CC2)O1)c1ccc(F)c(-c2c(F)cccc2F)n1 [Example 209, N-(4-((2S,4S,5R,6S)-6-cyclopropyl-4,5-dihydroxytetrahydro-2H-pyran-2-yl)pyridin-3-yl)-6-(2,6-difluorophenyl)-5-fluoropicolinamide]
1	3.1	2.2	636	2700	O=C(Nc1cnccc1[C@H]1C[C@@H](O)[C@H](O)[C@@H](C2CC2)O1)c1ccc(F)c(-c2c(F)cccc2F)n1 [Example 211, N-(4-((2R,4R,5S,6R)-6-cyclopropyl-4,5-dihydroxytetrahydro-2H-pyran-2-yl)pyridin-3-yl)-6-(2,6-difluorophenyl)-5-fluoropicolinamide]
0.6	2.6	4	252	800	Nc1ccc(-c2c(F)cccc2F)nc1C(=O)Nc1cnccc1[C@H]1C[C@@H](N)[C@@]2(O)CCC[C@H]2O1 [Example 215, 3-amino-N-(4-((2R,4R,4aS,7aR)-4-amino-4a-hydroxyoctahydrocyclopenta[b]pyran-2-yl)pyridin-3-yl)-6-(2,6-difluorophenyl)picolinamide]
